{"source": "patent US20190183798A1", "about": "“METHOD FOR TREATING TUMOR” (Johnpro Biotech Inc., priority 2016, published 2019)", "key": {"[1]": {"test_system": "HepG2 cells", "experiment": "Absorption of dextran, CT-B or transferrin in HepG2 cells under specified treatments (flow cytometry), with or without wortmannin", "assay_type": "cell-based", "experimental": "In the treatment of wortmannin, an inhibitor of macropinocytosis pathway, the HepG2 cells were treated with phosphate-buffered saline (PBS) or wortmannin at 37° C. for 15 minutes. After the administration of dextran, the cells were applied with 37° C. treatment, 42° C. treatment or mEHT treatment for 1 hour.\nThe cells were analyzed by flow cytometry."}, "[2]": {"test_system": "HepG2 cells", "experiment": "Absorption/retention of lipo-dox in HepG2 cells under specified treatments (flow cytometry, confocal microscopy)", "conditions": "37° C., 42° C. and mEHT treatments compared"}}}
{"molecule": "dextran", "values": [{"measurement": "Absorption of dextran to the cells compared with control group", "setting": "[1]; all treatment groups (37° C., 42° C. and mEHT), 1 mg/ml dextran", "result": "enhanced absorption"}, {"measurement": "Fluorescence signal of dextran in cells treated with mEHT", "setting": "[1]; mEHT treatment versus 37° C. and 42° C. treatments", "result": "highest fluorescence signals"}]}
{"molecule": "COc1cccc2c1C(=O)c1c(O)c3c(c(O)c1C2=O)C[C@@](O)(C(=O)CO)C[C@@H]3O[C@H]1C[C@H](N)[C@H](O)[C@H](C)O1", "note": "[dox, doxorubicin]", "values": [{"measurement": "Enhancement of the absorption of dox without liposome encapsulation", "setting": "[2]", "result": "no obvious difference among the tested treatments"}]}
{"molecule": "transferrin", "values": [{"measurement": "Absorption of transferrin by the cell compared with control group", "setting": "[1]; all treatment groups (37° C., 42° C. and mEHT), 5 μg/ml transferrin", "result": "enhanced absorption"}]}
{"molecule": "CT-B: particle about 100 nm used as tested drug for endocytosis uptake", "values": [{"measurement": "Absorption of CT-B by the cell compared with control group", "setting": "[1]; all treatment groups (37° C., 42° C. and mEHT), 2 μg/ml CT-B", "result": "enhanced absorption"}]}
